The source of these data is US20120058150A1, “Methods for Delivering Compositions by Electrospraying a Medical Device” (COLORADO STATE UNIVERSITY RESEARCH FOUNDATION, priority 2010, published 2012).

The data set can be described thus: gentamicin sulfate loading efficiency of E-sprayed DOPS coatings. In kind it is physicochemical. Conditions: 14 kV E-spray voltage compared with the other voltages (FIG. 4).

As for gentamicin sulfate, the “gentamicin sulfate loading efficiencies” value is listed as “significantly greater”.
